Patent US12458647B2, “Macrocyclic derivative and use thereof” (Guangzhou Joyo Pharmatech Co., Ltd., priority 2022, dated 2025)

Experiments:
A549 cells = assay: In vitro cell proliferation experiment (5 days), A549; format: cell-based; conditions: A549, 5 days; read-out: Inhibitory Activity IC50
Method: (§1) RPMI 1640 medium, DMEM, Ham's F12 medium, F12K medium, IMDM and penicillin/streptomycin antibiotics were purchased from Gibco, fetal bovine serum was purchased from Hyclone, Envision multilabel plate reader (PerkinElmer). […]
(§2) The test compound was diluted by 5-fold to 8 concentrations with a pipette, i.e., from 2 mM to 25.6 nM, and replicate wells were set up for the experiment. […] Another cell plate was prepared, and the signal value was read as the maximum value (the maximum value in the following equation) on the day of dosing for data analysis.
(§3) 50 μL of cell viability chemiluminescent detection reagent was added to the cell plate and incubated at room temperature for 30 minutes to stabilize the luminescence signal. A multilabel plate reader was used for reading. […]

A375 cell line = assay: In vitro cell proliferation experiment (5 days), A375 (wild-type independent cell line); format: cell-based; conditions: A375, 5 days; read-out: Inhibitory Activity IC50
Method: as §1, §2, §3

A427 cell line = assay: In vitro cell proliferation experiment (5 days), A427; format: cell-based; conditions: A427, 5 days; read-out: Inhibitory Activity IC50
Method: as §1, §2, §3

LOVO cells = assay: In vitro cell proliferation experiment (5 days), LOVO; format: cell-based; conditions: read-out: Inhibitory Activity IC50
Method: as §1, §2, §3

HCT116 cells = assay: In vitro cell proliferation experiment (5 days), HCT116; format: cell-based; conditions: HCT116, 5 days; read-out: Inhibitory Activity IC50
Method: as §1, §2, §3

NCI—H441 cells = assay: In vitro cell proliferation experiment (5 days), H441; format: cell-based; conditions: H441, 5 days; read-out: Inhibitory Activity IC50
Method: as §1, §2, §3

SW620 cells = assay: In vitro cell proliferation experiment (5 days), SW620; format: cell-based; conditions: SW620, 5 days; read-out: Inhibitory Activity IC50
Method: as §1, §2, §3

RKN cell line = assay: In vitro cell proliferation experiment (5 days), RKN; format: cell-based; conditions: read-out: Inhibitory Activity IC50
Method: as §1, §2, §3

NCI—H727 cells = assay: In vitro cell proliferation experiment (5 days), H727; format: cell-based; conditions: H727, 5 days; read-out: Inhibitory Activity IC50
Method: as §1, §2, §3

[1] = Pharmacokinetic study in rats; format: in vivo; conditions: male SD rats; for AUC0-last / Cl / T1/2 / Vd / Cmax / TMax: whole blood
Method: To evaluate the pharmacokinetic behavior of the compounds of the present disclosure in male SD rats.
The compounds to be tested were dissolved in the vehicle (5% DMSO/10% solutol/85% water). Four male SD rats were divided into 2 groups, with 2 rats in each group. Group 1 rats were administered a single intravenous bolus injection (i.v.) of the compounds at a dose of 1 mg/kg. Group 2 rats were administered a single dose of the compounds by gavage (p.o.) at a dose of 10 mg/kg. Whole blood samples were collected at 0.083 (intravenous bolus group only), 0.25, 0.5, 1, 2, 4, 8 and 24 hours after dosing. The LC-MS/MS method was used to determine the concentration of the test compound in whole blood samples.

PSN-1 cell line = assay: In vitro cell proliferation experiment (5 days), PSN-1; format: cell-based; conditions: PSN-1, 5 days; read-out: Inhibitory Activity IC50
Method: as §1, §2, §3

PK-59 cell line = assay: In vitro cell proliferation experiment (5 days), PK-59; format: cell-based; conditions: PK-59, 5 days; read-out: Inhibitory Activity IC50
Method: as §1, §2, §3

LU99 cell line = assay: In vitro cell proliferation experiment (5 days), LU99; format: cell-based; conditions: LU99, 5 days; read-out: Inhibitory Activity IC50
Method: as §1, §2, §3

Row | SMILES | IC50 (LOVO cells) | IC50 (RKN cell line) | AUC0-last ([1]; i.v. 1 mg/kg) | Cl ([1]; i.v. 1 mg/kg) | T1/2 ([1]; i.v. 1 mg/kg) | Vd ([1]; i.v. 1 mg/kg) | F(%) ([1]; p.o. 10 mg/kg) | AUC0-last ([1]; p.o. 10 mg/kg) | Cmax ([1]; p.o. 10 mg/kg) | T1/2 ([1]; p.o. 10 mg/kg) | TMax ([1]; p.o. 10 mg/kg) | IC50 (PSN-1 cell line) | other results
1 | CCn1c(-c2cc(N3CCN(C)CC3)cnc2C(C)OC)c2c3cc(ccc31)-c1csc(n1)CC(NC(=O)C1C(C)C1C)C(=O)N1NC(C(=O)OCC(C)(C)C2)C2CC1C2 (single isomer, unassigned) [Compound 6A] | 2.8 nM | 4.5 nM | 4.125 µM·h | 4.6 mL/min/kg | 5.7 h | 1.9 L/kg | 38% | 15.213 µM·h | 1620 nM | 6.1 h | 1.5 h | 5.3 nM | IC50 (A549 cells): 4.1 nM; IC50 (A375 cell line): > 6000 nM; IC50 (A427 cell line): 13.3 nM; IC50 (HCT116 cells): 5.5 nM; IC50 (NCI—H441 cells): 1.4 nM; IC50 (SW620 cells): 0.2 nM; IC50 (NCI—H727 cells): 0.4 nM; IC50 (PK-59 cell line): 2.3 nM; IC50 (LU99 cell line): 8.7 nM
2 | CCn1c(-c2cc(N3CCN(C)CC3)cnc2C(C)OC)c2c3cc(ccc31)-c1csc(n1)CC(NC(=O)C1CC1C)C(=O)N1NC(C(=O)OCC(C)(C)C2)C2CC1C2 (single isomer, unassigned) [Compound 7A] | 5.9 nM | 7.5 nM | 4.95 µM·h | 3.6 mL/min/kg | 8.5 h | 2.5 L/kg | 34.2% | 17.069 µM·h | 1460 nM | 7.3 h | 4.0 h | 10.5 nM | –
